Measured values published in PMC6934184, “Selective DNA-PKcs inhibition extends the therapeutic index of localized radiotherapy and chemotherapy” (The Journal of Clinical Investigation, 2019).

Target: T1, DYRK4 (Homo sapiens, UniProt Q9NR20)
T1 construct: purchased Thermo Fisher Scientific (Life Technologies) SelectScreen
Assay: SelectScreen Z'LYTE
Assay type: biochemical
In short: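 NU5455 was profiled across the SelectScreen Broad panel of kinase activity and binding assays. Z'LYTE reactions such as CSF1R ran at apparent Km ATP, while the Adapta CAMK1 assay used ATP listed as 10. Values are given as percent.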

T1 sequence (Q9NR20 whole entry): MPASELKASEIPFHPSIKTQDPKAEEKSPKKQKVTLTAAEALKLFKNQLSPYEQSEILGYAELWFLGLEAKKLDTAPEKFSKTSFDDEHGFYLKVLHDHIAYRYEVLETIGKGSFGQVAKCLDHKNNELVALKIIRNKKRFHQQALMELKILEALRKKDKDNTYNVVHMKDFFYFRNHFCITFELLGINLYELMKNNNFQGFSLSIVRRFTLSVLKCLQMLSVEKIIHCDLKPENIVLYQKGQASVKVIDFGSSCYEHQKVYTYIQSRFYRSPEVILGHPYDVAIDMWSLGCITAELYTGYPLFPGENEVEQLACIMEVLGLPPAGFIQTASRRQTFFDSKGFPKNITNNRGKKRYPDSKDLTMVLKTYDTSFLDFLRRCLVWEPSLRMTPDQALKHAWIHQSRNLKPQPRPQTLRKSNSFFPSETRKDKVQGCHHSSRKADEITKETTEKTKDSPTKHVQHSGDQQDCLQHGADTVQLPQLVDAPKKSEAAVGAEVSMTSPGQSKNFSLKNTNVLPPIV

`CN(C(=O)CN1CCOCC1)c1ccc2sc3c(-c4cccc5c(=O)cc(N6CC7CCC(C6)O7)oc45)cccc3c2c1` [NU5455] showed an inhibition at 1 µM of 0.3%.
